Tests used:
HIV-1-protease = biological target: T1, HIV-1-protease (Human immunodeficiency virus type 1 group M subtype B, UniProt P04585); test: Inhibition of the proteolytic activity of HIV-1-protease (icosapeptide substrate, HPLC); type: biochemical; conditions: icosapeptide RRSNQVSQNYPIVQNIQGRR 122 μM, 20 mM MES buffer pH 6.0, one hour at 37° C.; read-out: IC50 (concentration at which half the maximum inhibition of HIV-1-protease is found)
T1 construct: made in house
Experimental: In that procedure the inhibition of the action of HIV-1- protease (preparation: see S. Billich et al., J. Biol. Chem. 263 (34), 17905-17908 (1990)) is measured in the presence of the icosapeptide […] (a synthetic substrate of HIV-1-protease, prepared by peptide synthesis in accordance with known procedures (see J. Schneider et al., Cell 54, 363-368 (1988)), which contains as substrate analogue one of the cleavage sites of the gag-precursor protein (natural substrate of HIV-1-protease). That substrate and its cleavage products are analysed by high performance liquid chromatography (HPLC).
The test compound is dissolved in dimethyl sulfoxide. The enzymatic test is carried out by adding suitable dilutions of the inhibitor in 20 mM β-morpholinoethanesulfonic acid (MES) buffer pH 6.0 to the test mixture. That mixture consists of the above-mentioned icosapeptide (122 μM) in 20 mM MES buffer pH 6.0. 100 μl are used per test batch. The reaction is started by the addition of […] of HIV-1-protease solution and is stopped after one hour's incubation at 37° C. by the addition of 10 μl of 0.3M HClO4. After centrifugation of the sample at 10000×g for 5 minutes, 20 μl of the resulting supernatant are applied to a 125×4.6 mm Nucleosil® Cl8-5 μ HPLC column (reversed phase material supplied by Macherey & Nagel, Duren, FRG, based on silica gel that has been charged with C18 alkyl chains). The uncleaved icosapeptide and its cleavage products are eluted from the column by means of the following gradient: 100% eluant 1→50% eluant 1+50% eluant 2 (eluant 1:10% acetonitrile, 90% H2 O, 0.1% trifluoroacetic acid (TFA); eluant 2:75% acetonitrile, 25% H2 O, 0.08% TFA) over 15 minutes, throughflow rate 1 ml/min. The quantification of the eluted peptide fragments is carried out by measuring the peak height of the cleavage product at 215 nm.

HIV-1/MN = test: Inhibition of virus replication in MT-2 cells infected with HIV-1/MN (reverse transcriptase activity in supernatant); type: cell-based; conditions: 4 days' incubation
From the text: In a further test it can be shown that the title compound from Example 5 protects cells normally infected by HIV from such an infection or at least slows down such an infection. For this test, MT-2 cells infected with HIV-1/MN are used. MT-2 cells have been transformed with HTLV-1 (a virus causing leukaemia) and are a continuous producer thereof; they are therefore especially sensitive to the cytopathogenic effect of HIV. MT-2 cells can be obtained via the AIDS Research and Reference Reagent Program, Division of AIDS, NIAID, NIH from Dr. Douglas Richman (see J. Biol. Chem. 263, 5870-5875 (1988) and also Science 229, 563-566 (1985)). The MT-2 cells are cultured in RPMI 1640 medium (Gibco, Scotland; RPMI comprises an amino acid mixture without glutamine) supplemented with 10% heat-inactivated foetal calf serum, glutamine and standard antibiotics. […] The titre of the HIV-1/MN virus stock solution (determined by titration onto MT-2 cells) is 4.2×10^5 TClD50/ml (TClD50=Tissue Culture Infective Dose=dose that infects 50% of the MT-2 cells). […] Prior to the test, 0.1% (v/v) [alpha-^32 P]dTTP is added to aliquots of the solution in order to establish a radioactivity of 10 μCl/ml.
After mixing, the plate is incubated for 2 h at 37° C. […] The radioactivity on the filters is measured in a Matrix Packard 96-well counter (Packard, Zurich, Switzerland). […]

[1] = Plasma levels in mice after oral administration; type: in vivo, female BALB/c mice; conditions: 120 mg/kg
Experimental: In order to determine its pharmacokinetics, the title compound from Example 5 is dissolved in dimethyl sulfoxide (DMSO) in a concentration of 240 mg/ml. The resulting solution is diluted 1:20 (v/v) with 20% (w/v) aqueous hydroxypropyl-β-cyclodextrin solution in order to obtain a concentration of the test compound of 12 mg/ml. The resulting solution is treated briefly with ultrasound and administered orally to female BALB/c mice (Bomholtgarden, Copenhagen, Denmark) by artificial tube feeding at a dose of 120 mg/kg. At fixed times (for example 30, 60, 90, 120 min) after administration, mice are sacrificed and the […] stored in heparinised test tubes. The blood is centrifuged (12000×g, 5 min) and the plasma removed. […] The precipitate is pelleted by centrifugation (12000×g, 5 min), and the concentration of the test compound is determined by reversed phase high performance liquid chromatography (HPLC).
The HPLC analysis of the samples obtained in accordance with the method described above is carried out on a 125×4.6 mm Nucleosil® C18 column (reversed phase material supplied by Macherey & Nagel, Duren, Germany, based on silica gel derivatised with hydrocarbon radicals having 18 carbon atoms), using a 2 cm long preliminary column containing the same column material. […] The test compound is detected by UV absorption measurement at 255 nm. […]

| Compound | IC50 (HIV-1-protease) [µM] | ED90 (concentration that reduces the RT activity by 90%; 90% inhibition of virus replication) (HIV-1/MN) [µM] | plasma level ([1]; 30 min after administration) [µM] | plasma level ([1]; 90 min after administration) [µM] |
| --- | --- | --- | --- | --- |
| COC(=O)N[C@H](C(=O)N[C@@H](Cc1ccccc1)[C@@H](O)CN(Cc1ccc(-c2nccs2)cc1)NC(=O)[C@@H](NC(=O)OC)C(C)(C)C)C(C)(C)C [1-[4-(thiazol-2-yl)-phenyl]-4(S)-hydroxy-5(S)-2,5-bis[N-(N-methoxycarbonyl-(L)-tert-leucyl)amino]-6-phenyl-2-azahexane] | 0.033 | – | – | – |
| COC(=O)N[C@H](C(=O)N[C@@H](Cc1ccccc1)[C@@H](O)CN(Cc1ccc(-c2nnn(C)n2)cc1)NC(=O)[C@@H](NC(=O)OC)C(C)(C)C)C(C)(C)C [1-[4-(2-methyl-2H-tetrazol-5-yl)-phenyl]-4(S)-hydroxy-5(S)-2,5-bis[N-(N-methoxycarbonyl-(L)-tert-leucyl)amino]-6-phenyl-2-axahexane] | 0.051 | – | – | – |
| COC(=O)N[C@H](C(=O)N[C@@H](Cc1ccccc1)[C@@H](O)CN(Cc1ccc(-c2ccccn2)cc1)NC(=O)[C@@H](NC(=O)OC)C(C)(C)C)C(C)(C)C [Example 5, 1-[4-(Pyridin-2-yl)-phenyl]-4(S)-hydroxy-5(S)-2,5-bis[N-(N-methoxycarbonyl-(L)-tert-leucyl)-amino]-6-phenyl-2-azahexane] | 0.026 | 0.003 | 21.83 | 31.76 |
